{"source": "paper PMC6704710", "about": "“Preclinical evaluation of 3D185, a novel potent inhibitor of FGFR1/2/3 and CSF-1R, in FGFR-dependent and macrophage-dominant cancer models” (Journal of Experimental & Clinical Cancer Research : CR, 2019)", "key": {"[1]": {"target": "T1, ALK2(h) (Homo sapiens, UniProt Q04771)", "T1 construct": "purchased Eurofins (KinaseProfiler)", "T1 sequence (Q04771 21-509)": "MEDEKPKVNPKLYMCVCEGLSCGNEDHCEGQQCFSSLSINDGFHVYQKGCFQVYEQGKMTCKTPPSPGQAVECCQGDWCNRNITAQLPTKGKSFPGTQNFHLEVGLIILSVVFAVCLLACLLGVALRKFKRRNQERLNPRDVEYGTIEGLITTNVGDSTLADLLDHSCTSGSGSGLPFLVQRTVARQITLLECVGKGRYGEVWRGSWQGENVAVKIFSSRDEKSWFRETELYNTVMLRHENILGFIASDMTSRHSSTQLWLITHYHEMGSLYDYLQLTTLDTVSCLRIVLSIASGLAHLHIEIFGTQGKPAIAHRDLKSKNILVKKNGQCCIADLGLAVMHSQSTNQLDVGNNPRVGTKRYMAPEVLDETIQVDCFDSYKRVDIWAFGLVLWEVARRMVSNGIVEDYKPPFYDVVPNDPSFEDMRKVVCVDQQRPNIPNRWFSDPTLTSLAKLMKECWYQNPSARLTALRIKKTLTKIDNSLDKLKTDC", "assay": "Eurofins kinase panel", "format": "biochemical", "conditions": "read-out: Inhibition rate (%)"}, "[2]": {"target": "T2, BrSK2(h) (Homo sapiens, UniProt Q8IWQ3)", "T2 construct": "purchased Eurofins (KinaseProfiler)", "T2 sequence (Q8IWQ3 1-736)": "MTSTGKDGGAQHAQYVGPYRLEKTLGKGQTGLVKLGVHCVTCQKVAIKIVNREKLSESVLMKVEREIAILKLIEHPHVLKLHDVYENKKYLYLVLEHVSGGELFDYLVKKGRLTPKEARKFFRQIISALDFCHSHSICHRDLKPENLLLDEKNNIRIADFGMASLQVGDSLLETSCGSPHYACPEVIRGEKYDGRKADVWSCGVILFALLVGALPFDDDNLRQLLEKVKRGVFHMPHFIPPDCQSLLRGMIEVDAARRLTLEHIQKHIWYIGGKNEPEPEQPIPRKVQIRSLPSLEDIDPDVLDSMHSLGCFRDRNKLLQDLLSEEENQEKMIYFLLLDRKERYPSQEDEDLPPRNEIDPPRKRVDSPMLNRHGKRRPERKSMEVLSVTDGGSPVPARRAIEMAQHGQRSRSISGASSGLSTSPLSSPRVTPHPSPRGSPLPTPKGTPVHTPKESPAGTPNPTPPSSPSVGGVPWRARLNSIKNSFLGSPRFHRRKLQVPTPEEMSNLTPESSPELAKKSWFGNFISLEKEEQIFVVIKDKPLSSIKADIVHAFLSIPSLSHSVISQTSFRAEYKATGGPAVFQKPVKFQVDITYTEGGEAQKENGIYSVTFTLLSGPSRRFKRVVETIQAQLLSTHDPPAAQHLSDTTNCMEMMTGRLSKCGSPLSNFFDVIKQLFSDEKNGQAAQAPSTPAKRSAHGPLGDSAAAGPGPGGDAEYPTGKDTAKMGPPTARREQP", "assay": "Eurofins kinase panel", "format": "biochemical", "conditions": "read-out: Inhibition rate (%)"}, "[3]": {"target": "T3, PhKγ2(h) (Homo sapiens, UniProt P15735)", "T3 construct": "purchased Eurofins (KinaseProfiler)", "T3 sequence (P15735 1-406)": "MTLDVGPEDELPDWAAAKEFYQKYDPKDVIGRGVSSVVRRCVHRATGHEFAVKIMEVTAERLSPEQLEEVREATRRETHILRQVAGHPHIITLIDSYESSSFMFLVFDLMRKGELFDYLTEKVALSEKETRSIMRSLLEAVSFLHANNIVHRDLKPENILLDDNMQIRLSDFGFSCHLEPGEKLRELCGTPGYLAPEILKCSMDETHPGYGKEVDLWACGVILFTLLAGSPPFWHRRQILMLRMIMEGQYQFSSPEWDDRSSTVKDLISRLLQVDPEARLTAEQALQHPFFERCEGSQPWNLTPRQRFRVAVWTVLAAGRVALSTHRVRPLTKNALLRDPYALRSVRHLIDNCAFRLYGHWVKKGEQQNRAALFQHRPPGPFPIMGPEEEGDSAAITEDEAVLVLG", "assay": "Eurofins kinase panel", "format": "biochemical", "conditions": "read-out: Inhibition rate (%)"}, "[4]": {"test_system": "VEGF-induced primary HUVECs", "assay": "VEGF-induced HUVEC proliferation (CCK-8)", "format": "cell-based", "conditions": "Homo sapiens, VEGF 100 ng/mL, 48 h", "procedure": "Fig. 1 3D185 is a dual FGFR1/2/3 and CSF-1R inhibitor with high selectivity. a Chemical structure of 3D185. […]. H, A broad kinase profile of 3D185 against 372 protein kinases. […]. Representative data from three independent experiments are shown\nThe cancer cell lines indicated in Figure 3 were seeded in 96-well plates at a low density in growth medium. The next day, appropriate controls or the designated concentrations of the compounds were added to each well, and the cells were incubated for 72 h. HUVECs (passage 3) were seeded in 96-well plates in growth medium overnight and transferred to serum-free medium for 24 h. The following day, appropriate controls or the designated concentrations of the compounds were added to each well, and 100 ng/mL growth factor (bFGF or VEGF) was added to the indicated wells. The cells were incubated for 48 h. Finally, cell proliferation was determined using a sulforhodamine B (SRB) assay or a cell counting kit-8 (CCK-8) assay. […] IC50 values for proliferation curves were calculated using a 4-parameter logistic nonlinear regression model with SoftMax Pro Software (Molecular Devices, San Jose, USA)."}, "[5]": {"test_system": "PBMC (CSF-2)", "assay": "Macrophage survival (CCK-8)", "format": "cell-based", "conditions": "Homo sapiens, 168 h, 7 days", "procedure": "Murine bone marrow-derived macrophages (BMDMs) and PBMCs were used for cell viability studies. BMDMs were harvested by flushing the tibias and femurs of 6- to 8-week-old C57BL/6 mice and depleting red blood cells (RBCs) by RBC lysis (Biogems). For BMDM survival, the cells were cultured for 7 days in RPMI 1640 containing 10% fetal bovine serum (FBS), 100 U/mL penicillin, 100 μg/mL streptomycin and 100 ng/mL mouse CSF-1 (or CSF-2) with or without the tested compounds. PBMCs were obtained from HemaCare and cultured for 7 days in RPMI 1640 containing 10% fetal bovine serum (FBS), 100 U/mL penicillin, 100 μg/mL streptomycin and 100 ng/mL human CSF-1 (or CSF-2) with or without the tested compounds. Cell viability was measured using the CCK-8 assay. For IL-4/IL-13-induced macrophage survival analysis, viable cells were counted by trypan blue exclusion."}}, "data": [{"smiles": "COc1cc(OC)c(Cl)c(-c2ccc3c(NC(=O)c4ccc(N5CCNC(C)(C)C5)cc4)n[nH]c3n2)c1Cl", "note": "[3D185]", "values": [{"measurement": "inhibition at 0.01 µM", "setting": "[1]; 10 nM", "result": -10, "unit": "%"}, {"measurement": "inhibition at 0.1 µM", "setting": "[1]; 100 nM", "result": -15, "unit": "%"}, {"measurement": "inhibition at 1 µM", "setting": "[1]; 1000 nM", "result": -4, "unit": "%"}, {"measurement": "inhibition at 0.01 µM", "setting": "[2]; 10 nM", "result": 8, "unit": "%"}, {"measurement": "inhibition at 0.1 µM", "setting": "[2]; 100 nM", "result": 5, "unit": "%"}, {"measurement": "inhibition at 1 µM", "setting": "[2]; 1000 nM", "result": 11, "unit": "%"}, {"measurement": "inhibition at 0.01 µM", "setting": "[3]; 10 nM", "result": 12, "unit": "%"}, {"measurement": "inhibition at 0.1 µM", "setting": "[3]; 100 nM", "result": -8, "unit": "%"}, {"measurement": "inhibition at 1 µM", "setting": "[3]; 1000 nM", "result": -3, "unit": "%"}, {"measurement": "IC50", "setting": "[4]", "result": 88.1, "unit": "nM"}, {"measurement": "IC50", "setting": "[5]", "result": "> 1000", "unit": "nM"}]}]}
